Earlier results in paper PMC6151550, “Inhibitory Effect of Selaginellins from Selaginella tamariscina (Beauv.) Spring against Cytochrome P450 and Uridine 5′-Diphosphoglucuronosyltransferase Isoforms on Human Liver Microsomes” (Molecules : A Journal of Synthetic Chemistry and Natural …, 2017).

Key:
UGT1A1 = tested on: UGT1A1; set-up: method as in PMID 25216634; conditions: read-out: Ki against UGT1A1-mediated SN-38 glucuronidation; cited from earlier work
CYP2C8 = conditions: cited from earlier work

CC(C)=CCc1cc2c(cc1O)oc(=O)c1c3ccc(O)cc3oc21 [psoralidin]
Ki (UGT1A1): 5.8 µM

Cc1c(C)c2c(c(C)c1O)CCC(C)(COc1ccc(CC3SC(=O)NC3=O)cc1)O2 (stereo not drawn) [troglitazone]
IC50 (CYP2C8): 2.3 µM
